One block for each substance: values may come before it.
How the values were obtained:
[1] = Solubility of peptides in DMSO/D5W/5 mM succinate formulation; conditions: pH 6
[2] = pH of peptide solutions in DMSO/D5W, with succinate, and with Hiltonol; assay type: physicochemical
[3] = Short-term room temperature stability of Pool 3 mixed with Hiltonol (RP-HPLC); assay type: physicochemical
Protocol: A peptide pool (Pool 3) consisting of the five peptides shown in Table 6 below was prepared by dissolution in DMSO and dilution with D5W/Succinate (2 mM) to 2 mg/ml and pooling to a final peptide concentration of 400 μg per ml and a final DMSO concentration of 4%. After preparation, peptides were filtered with a 25 mm Pall PES filter (Cat#4612) and dispensed into Nunc Cryo vials (#375418) in one ml aliquots.
Three samples were prepared by mixing 0.75 ml of Pool3 with 0.25 ml Hiltonol® as planned for the dosage form preparation. The samples were then left at room temperature for 0, 4 and 6 hours and analyzed by RP-HPLC (Table 7). […] As slight increase in a second peak associated with peptide CS6919 was noted, increasing from 14% to 17% and 18% at 4 and 6 hours, respectively. […] Recovery of all peptides was above 90%, indicating no breakdown and loss of any peptides in the final dosage form after 6 hour room temperature incubation.

[4] = Direct dissolution of peptides in D5W without DMSO; assay type: physicochemical; conditions: <1 mg peptide
[5] = Peptide diluent matrix (precipitation of DMSO dissolved peptides in various liquids); assay type: physicochemical; parameters: key to Precipitation in diluent: Liposome / Precipitation in diluent: PBS pH 7.4 / Precipitation in diluent: Water / Precipitation in diluent: 10% Sucrose / Precipitation in diluent: D5W (5% Dextrose USP Grade Inj): P = precipitation; NP = no precipitation; conditions: for Precipitation in diluent: 10% Sucrose: 10-20 μL DMSO dissolved peptide added to 10% Sucrose; for Precipitation in diluent: D5W (5% Dextrose USP Grade Inj): 10-20 μL DMSO dissolved peptide added to D5W; for Precipitation in diluent: Liposome: 10-20 μL DMSO dissolved peptide added to Liposome; for Precipitation in diluent: PBS pH 7.4: 10-20 μL DMSO dissolved peptide added to PBS pH 7.4; for Precipitation in diluent: Water: 10-20 μL DMSO dissolved peptide added to Water
Protocol: Additional peptide solubility conditions were tested. Peptides CS6709, CS6712, CS6720, CS6726, and CS6783 were weighed at approximately 10 mg each. The peptides were then dissolved in approximately 200 μL USP grade DMSO to obtain a 50 mg/mL concentration for each peptide. […] The sample appeared to be cloudy. Additional 50 μL increments of DMSO were added to Peptide CS6709 up to 400 μL; for a total of 600 μL of DMSO. […] To dilute the peptides to 400 μg, a PBS pH 7.4 solution without potassium was prepared. All 5 DMSO peptide samples (50 mg/mL) were placed in a single vial for dilution to 400 μg/mL. Each DMSO peptide was added to the vial at 40 μL, except for CS6709 which was at a concentration of 16.67 mg/mL. The volume of CS6709 added to the single vial was 120 μL. The samples were diluted to 400 μg by adding 4.72 mL PBS pH 7.4. Upon addition of the PBS pH 7.4, it was observed that one or more of the peptides had precipitated out. To determine which of the peptides precipitated, Applicants followed the matrix in Table 5 below using very small amounts (10-20 μL) of the DMSO dissolved peptides and adding these peptides to the various liquids.

Substance: H-GALGAVGATKVPRNQDWLGVSRQLRTKA-OH
solubility [1]: > 2000 µg/mL

Substance: H-LVDQWRWGVFSGHTPPSRYNFDWWY-OH
solubility [1]: < 2000 µg/mL

Substance: H-LAALCPASRALEEKKGNYVVTDHGS-OH
solubility [1]: > 2000 µg/mL

Substance: H-AVRSPGSPLILEVGSGSGAIS-OH
solubility [1]: > 2000 µg/mL

Substance: H-LAALCPASRALEEKKGNYVVTDH-OH
solubility [1]: > 2000 µg/mL

Substance: H-LDVLQRPLSPGNSEFLTATANYSK-OH
solubility [1]: < 2000 µg/mL

Substance: H-VTLNDMKARQKALVRERERQLA-OH
solubility [1]: > 2000 µg/mL

pH of peptides in DMSO/D5W [2]: 3.86
pH of peptides in DMSO/D5W/5mM S. Succinate spike [2]: 6.57
pH of peptides in DMSO/D5W/5nnM Succinate and Hiltonol [2]: 6.79
% Impurity ([3]; Pool 3 + Hiltonol, 4 Hours RT): 3.06%
% Purity ([3]; Pool 3 + Hiltonol, 4 Hours RT): 96.94%
Main Peak ([3]; Pool 3 + Hiltonol, 4 Hours RT): 5842.22
Total Impurities ([3]; Pool 3 + Hiltonol, 4 Hours RT): 184.46
Total Peak ([3]; Pool 3 + Hiltonol, 4 Hours RT): 6026.68
% Impurity ([3]; Pool 3 + Hiltonol, 6 Hours RT): 3.41%
% Purity ([3]; Pool 3 + Hiltonol, 6 Hours RT): 96.59%
Main Peak ([3]; Pool 3 + Hiltonol, 6 Hours RT): 6268.16
Total Impurities ([3]; Pool 3 + Hiltonol, 6 Hours RT): 221.46
Total Peak ([3]; Pool 3 + Hiltonol, 6 Hours RT): 6489.62
% Impurity ([3]; T0 Pool 3 + Hiltonol, RP-HPLC): 3.83%
% Purity ([3]; T0 Pool 3 + Hiltonol, RP-HPLC): 96.17%
Main Peak ([3]; T0 Pool 3 + Hiltonol, RP-HPLC): 6147.14
Total Impurities ([3]; T0 Pool 3 + Hiltonol, RP-HPLC): 244.49
Total Peak ([3]; T0 Pool 3 + Hiltonol, RP-HPLC): 6391.63
Substance: H-SKRGVGAKTLLLPDPFLFWPCLEGTRRSL-OH [CS6934]

Dissolution directly in D5W without using DMSO [4]: could be dissolved directly in D5W
Precipitation in diluent: 10% Sucrose [5]: NP
Precipitation in diluent: D5W (5% Dextrose USP Grade Inj) [5]: NP
Precipitation in diluent: Liposome [5]: NP
Precipitation in diluent: PBS pH 7.4 [5]: NP
Precipitation in diluent: Water [5]: NP
Substance: H-DSAVDKGHPNRSALSLTPGLRIGPSGIPQAGLG-OH [CS6726]

Substance: H-LCPASRALEEKKGNYVVTDHGS-OH
solubility [1]: > 2000 µg/mL

Dissolution directly in D5W without using DMSO [4]: could be dissolved directly in D5W
Precipitation in diluent: 10% Sucrose [5]: NP
Precipitation in diluent: D5W (5% Dextrose USP Grade Inj) [5]: NP
Precipitation in diluent: Liposome [5]: NP
Precipitation in diluent: PBS pH 7.4 [5]: NP
Precipitation in diluent: Water [5]: NP
Substance: H-SPTEPSTKLPGFDSCGNTEIAERKIKRIYGGFK-OH [CS6720]

pH of peptides in DMSO/D5W [2]: 3.92
pH of peptides in DMSO/D5W/5mM S. Succinate spike [2]: 6.49
pH of peptides in DMSO/D5W/5nnM Succinate and Hiltonol [2]: 6.78
% Impurity ([3]; Pool 3 + Hiltonol, 4 Hours RT): 0%
% Purity ([3]; Pool 3 + Hiltonol, 4 Hours RT): 100%
Main Peak ([3]; Pool 3 + Hiltonol, 4 Hours RT): 6676.54
Total Impurities ([3]; Pool 3 + Hiltonol, 4 Hours RT): 0
Total Peak ([3]; Pool 3 + Hiltonol, 4 Hours RT): 6676.54
% Impurity ([3]; Pool 3 + Hiltonol, 6 Hours RT): 0%
% Purity ([3]; Pool 3 + Hiltonol, 6 Hours RT): 100%
Main Peak ([3]; Pool 3 + Hiltonol, 6 Hours RT): 7158.29
Total Impurities ([3]; Pool 3 + Hiltonol, 6 Hours RT): 0
Total Peak ([3]; Pool 3 + Hiltonol, 6 Hours RT): 7158.29
% Impurity ([3]; T0 Pool 3 + Hiltonol, RP-HPLC): 0%
% Purity ([3]; T0 Pool 3 + Hiltonol, RP-HPLC): 100%
Main Peak ([3]; T0 Pool 3 + Hiltonol, RP-HPLC): 7140.91
Total Impurities ([3]; T0 Pool 3 + Hiltonol, RP-HPLC): 0
Total Peak ([3]; T0 Pool 3 + Hiltonol, RP-HPLC): 7140.91
Substance: H-AHRQGEKQHLLPVFSRLALRLPWRHSVQL-OH [CS6941]

Substance: H-HPEFANPDSMEYISDVVDEVIQN-OH
solubility [1]: > 2000 µg/mL

Substance: H-SLPKSFKRKIFVVSATKGVPAGNSD-OH
solubility [1]: > 2000 µg/mL

Dissolution directly in D5W without using DMSO [4]: could be dissolved directly in D5W
Precipitation in diluent: 10% Sucrose [5]: NP
Precipitation in diluent: D5W (5% Dextrose USP Grade Inj) [5]: NP
Precipitation in diluent: Liposome [5]: NP
Precipitation in diluent: PBS pH 7.4 [5]: NP
Precipitation in diluent: Water [5]: NP
Substance: H-LKDSNSWPPSNKRGFDTEDAHKSNATPVP-OH [CS6712]

Substance: H-ASRALEEKKGNYVVTDHGSCVRA-OH
solubility [1]: > 2000 µg/mL

Substance: H-DPNKYPVPENWLYKEAHQLFLE-OH
solubility [1]: > 2000 µg/mL
